The CheMixHub viscosity set
± gives the uncertainty stated by the source.

Experiment: xn = mol fraction of the nth substance listed

O=[N+]([O-])c1ccccc1O + Brc1ccccc1
viscosity [mPa·s], 101 kPa
Conditions | 303.15 K | 308.15 K | 313.15 K | 318.15 K | 323.15 K
x1 = 0.602 | 1.884 ± 0.048 | 1.719 ± 0.043 | 1.576 ± 0.04 | 1.46 ± 0.037 | 1.35 ± 0.034
x1 = 0.8579 | – | 2.658 ± 0.068 | 2.366 ± 0.06 | 2.134 ± 0.054 | 1.934 ± 0.049

CCCCCCCCCO + C1CCCCC1
viscosity [mPa·s]
Conditions | 293.15 K | 303.15 K | 313.15 K | 323.15 K
100 kPa, x2 = 0.0822 | 9.85 ± 0.79 | 6.89 ± 0.55 | 4.93 ± 0.4 | 3.66 ± 0.29
100 kPa, x2 = 0.1616 | 8.5 ± 0.68 | 6 ± 0.48 | 4.32 ± 0.35 | 3.23 ± 0.26
100 kPa, x2 = 0.2413 | 7.2 ± 0.58 | 5.17 ± 0.42 | 3.76 ± 0.3 | 2.83 ± 0.23
100 kPa, x2 = 0.3502 | 5.63 ± 0.45 | 4.15 ± 0.33 | 3.05 ± 0.25 | 2.33 ± 0.19
100 kPa, x2 = 0.4404 | 4.51 ± 0.36 | 3.44 ± 0.28 | 2.54 ± 0.2 | 1.96 ± 0.16
100 kPa, x2 = 0.5611 | 3.29 ± 0.26 | 2.63 ± 0.21 | 1.97 ± 0.16 | 1.56 ± 0.13
100 kPa, x2 = 0.6503 | 2.57 ± 0.21 | 2.13 ± 0.17 | 1.6 ± 0.1 | 1.3 ± 0.1
100 kPa, x2 = 0.7412 | 1.96 ± 0.16 | 1.68 ± 0.14 | 1.3 ± 0.1 | 1.08 ± 0.09
100 kPa, x2 = 0.8514 | 1.42 ± 0.11 | 1.26 ± 0.1 | 1.03 ± 0.08 | 0.86 ± 0.07
100 kPa, x2 = 0.9397 | 1.11 ± 0.09 | 0.97 ± 0.08 | 0.81 ± 0.07 | 0.7 ± 0.06
101.33 kPa, x1 = 0.105 | – | 1.068 ± 0.013 | – | –
101.33 kPa, x1 = 0.2105 | – | 1.397 ± 0.017 | – | –
101.33 kPa, x1 = 0.311 | – | 1.784 ± 0.021 | – | –
101.33 kPa, x1 = 0.3969 | – | 2.186 ± 0.025 | – | –
101.33 kPa, x1 = 0.4955 | – | 2.735 ± 0.031 | – | –
101.33 kPa, x1 = 0.6055 | – | 3.462 ± 0.039 | – | –
101.33 kPa, x1 = 0.6959 | – | 4.153 ± 0.047 | – | –
101.33 kPa, x1 = 0.801 | – | 5.108 ± 0.057 | – | –
101.33 kPa, x1 = 0.9054 | – | 6.215 ± 0.066 | – | –

Cc1cccc2ccccc12 + CC1CCCCC1
viscosity [mPa·s], 100 kPa
Conditions | x1 = 0.125 | x1 = 0.25 | x1 = 0.375 | x1 = 0.5 | x1 = 0.625 | x1 = 0.75 | x1 = 0.875
303.15 K | 0.715 ± 0.016 | 0.829 ± 0.019 | 0.972 ± 0.023 | 1.13 ± 0.027 | 1.37 ± 0.033 | 1.67 ± 0.04 | 2.06 ± 0.051
323.15 K | 0.559 ± 0.013 | 0.64 ± 0.015 | 0.733 ± 0.017 | 0.853 ± 0.02 | 1.01 ± 0.024 | 1.2 ± 0.029 | 1.44 ± 0.036

CC(=O)N(C)C + CC#N
303.15 K, 101.33 kPa
Conditions | viscosity [mPa·s]
x2 = 0.0996 | 0.8371 ± 0.011
x2 = 0.2019 | 0.7966 ± 0.01
x2 = 0.2938 | 0.7487 ± 0.0097
x2 = 0.3974 | 0.7001 ± 0.0092
x2 = 0.497 | 0.6422 ± 0.0086
x2 = 0.5983 | 0.5843 ± 0.008
x2 = 0.7013 | 0.5199 ± 0.0073
x2 = 0.7983 | 0.4568 ± 0.0066
x2 = 0.9001 | 0.3878 ± 0.0058

CCC1CCCCC1 + CC(=O)CC(C)C
298.15 K, 101 kPa
Conditions | viscosity [mPa·s]
x2 = 0.1314 | 0.695 ± 0.007
x2 = 0.2549 | 0.645 ± 0.007
x2 = 0.3669 | 0.621 ± 0.006
x2 = 0.473 | 0.6 ± 0.006
x2 = 0.5856 | 0.583 ± 0.006
x2 = 0.7041 | 0.567 ± 0.006
x2 = 0.8091 | 0.556 ± 0.006
x2 = 0.9079 | 0.547 ± 0.006

CC(=O)N(C)C + CC(C)O
303.15 K, 101 kPa
Conditions | viscosity [mPa·s]
x1 = 0.1016 | 1.428 ± 0.013
x1 = 0.2027 | 1.222 ± 0.012
x1 = 0.3046 | 1.1 ± 0.011
x1 = 0.5032 | 0.994 ± 0.01
x1 = 0.6012 | 0.945 ± 0.01
x1 = 0.7055 | 0.939 ± 0.01
x1 = 0.906 | 0.884 ± 0.01

CC(=O)N1CCOCC1 + CC(C)O
viscosity [mPa·s], 101 kPa
Conditions | 293.15 K | 303.15 K | 313.15 K | 323.15 K
x1 = 0.0522 | 3.709 ± 0.083 | 2.981 ± 0.067 | 2.398 ± 0.055 | 2.058 ± 0.048
x1 = 0.1274 | 4.822 ± 0.11 | 4.027 ± 0.09 | 3.33 ± 0.075 | 2.819 ± 0.064
x1 = 0.2153 | 6.051 ± 0.13 | 5.18 ± 0.11 | 4.35 ± 0.097 | 3.754 ± 0.084
x1 = 0.2813 | 6.792 ± 0.14 | 5.862 ± 0.12 | 4.934 ± 0.11 | 4.274 ± 0.096
x1 = 0.3169 | 7.055 ± 0.14 | 6.069 ± 0.13 | 5.112 ± 0.11 | 4.418 ± 0.099
x1 = 0.3909 | 7.575 ± 0.15 | 6.548 ± 0.14 | 5.454 ± 0.12 | 4.686 ± 0.11
x1 = 0.4569 | 7.956 ± 0.16 | 6.872 ± 0.14 | 5.68 ± 0.12 | 4.85 ± 0.11
x1 = 0.4999 | 8.044 ± 0.16 | 6.922 ± 0.14 | 5.666 ± 0.12 | 4.794 ± 0.11
x1 = 0.5444 | 8.301 ± 0.17 | 7.14 ± 0.15 | 5.816 ± 0.13 | 4.903 ± 0.11
x1 = 0.6113 | 8.421 ± 0.17 | 7.202 ± 0.15 | 5.778 ± 0.13 | 4.799 ± 0.11
x1 = 0.6342 | 8.356 ± 0.17 | 7.116 ± 0.15 | 5.656 ± 0.13 | 4.656 ± 0.11
x1 = 0.6888 | 8.479 ± 0.17 | 7.191 ± 0.15 | 5.651 ± 0.13 | 4.597 ± 0.11
x1 = 0.7522 | 8.573 ± 0.18 | 7.229 ± 0.15 | 5.593 ± 0.13 | 4.478 ± 0.1
x1 = 0.7976 | 8.575 ± 0.18 | 7.191 ± 0.15 | 5.487 ± 0.12 | 4.328 ± 0.1
x1 = 0.8555 | 8.612 ± 0.18 | 7.176 ± 0.16 | 5.389 ± 0.12 | 4.174 ± 0.099
x1 = 0.9231 | 8.559 ± 0.18 | 7.065 ± 0.15 | 5.172 ± 0.12 | 3.892 ± 0.093
x2 = 0.0188 | 8.649 ± 0.19 | 7.104 ± 0.16 | 5.163 ± 0.12 | 3.893 ± 0.094

Cc1cccc2ccccc12 + CC(CC(C)(C)C)CC(C)(C)CC(C)(C)C
viscosity [mPa·s], 100 kPa
Conditions | x1 = 0.125 | x1 = 0.25 | x1 = 0.375 | x1 = 0.5 | x1 = 0.625 | x1 = 0.75 | x1 = 0.875
293.15 K | 3.46 ± 0.22 | 3.24 ± 0.21 | 3.09 ± 0.2 | 2.97 ± 0.19 | 2.88 ± 0.19 | 2.9 ± 0.19 | 3.02 ± 0.2
303.15 K | 2.75 ± 0.18 | 2.61 ± 0.17 | 2.47 ± 0.16 | 2.38 ± 0.15 | 2.32 ± 0.15 | 2.33 ± 0.15 | 2.4 ± 0.16
313.15 K | 2.29 ± 0.15 | 2.14 ± 0.14 | 2.02 ± 0.13 | 1.95 ± 0.13 | 1.9 ± 0.12 | 1.91 ± 0.12 | 1.97 ± 0.13
323.15 K | 1.86 ± 0.12 | 1.76 ± 0.11 | 1.7 ± 0.11 | 1.64 ± 0.1 | 1.6 ± 0.1 | 1.61 ± 0.1 | 1.64 ± 0.1

CCCCCCCCCO + CCC(C)=O
viscosity [mPa·s], 100 kPa
Conditions | x2 = 0.0834 | x2 = 0.1589 | x2 = 0.2407 | x2 = 0.3508 | x2 = 0.4403 | x2 = 0.5589 | x2 = 0.6502 | x2 = 0.7393 | x2 = 0.8501 | x2 = 0.9393
293.15 K | 8.68 ± 0.87 | 6.91 ± 0.69 | 5.59 ± 0.56 | 4.29 ± 0.43 | 3.39 ± 0.34 | 2.38 ± 0.24 | 1.83 ± 0.18 | 1.33 ± 0.13 | 0.78 ± 0.08 | 0.56 ± 0.06
303.15 K | 6.38 ± 0.64 | 5.06 ± 0.51 | 3.89 ± 0.39 | 2.91 ± 0.29 | 2.25 ± 0.23 | 1.52 ± 0.15 | 0.98 ± 0.1 | 0.76 ± 0.08 | 0.53 ± 0.05 | 0.46 ± 0.05
313.15 K | 4.39 ± 0.44 | 3.52 ± 0.35 | 2.8 ± 0.3 | 2.07 ± 0.21 | 1.61 ± 0.16 | 1.21 ± 0.12 | 0.98 ± 0.1 | 0.78 ± 0.08 | 0.55 ± 0.06 | 0.42 ± 0.04
323.15 K | 3.27 ± 0.33 | 2.67 ± 0.27 | 2.14 ± 0.21 | 1.56 ± 0.16 | 1.25 ± 0.13 | 0.92 ± 0.09 | 0.72 ± 0.07 | 0.59 ± 0.06 | 0.47 ± 0.05 | 0.38 ± 0.04
